Results taken from publication PMC11274883, “Anticancer Effect of Pt^[sequence], Pt^II5MESS, Pt^II56MESS and Their Platinum(IV)-Dihydroxy Derivatives against Triple-Negative Breast Cancer and Cisplatin-Resistant Colorectal Cancer” (Cancers, 2024).

Tests used:
HT29 cells [1] = assay: DCFDA cellular ROS detection assay; type: cell-based; settings: complexes at IC50, TBHP 20 µM
Experimental: (§1) DCFDA/H2DCFDA-cellular ROS Assay Kit (Abcam, Cambridge, MA, USA) was used to investigate the production of ROS in treated cells, as previously described. MDA−MB−231 or HT29 cells were seeded at a total concentration of 2500 cells/well in 96-well plates and incubated overnight. DMEM was then removed, and cells washed with 1× kit buffer, and stained with 25 µM 2′,7′-dichlorofluorescein diacetate (DCFH-DA) for 45 min. […] After that, the plates were scanned using the Glo-Max®-Multimode microplate reader (Promega Corporation, Alexandra, VIC, Australia) at an excitation/emission of 485/535 nm to detect fluorescence (relative fluorescence units, or RFU) at various time points. A positive control was generated using 20 µM tert-butyl hydroperoxide (TBHP), and the same procedure was applied with DCFDA. Three independent experiments in triplicates were implemented.

MDA−MB−231 cells [2] = assay: DCFDA cellular ROS detection assay; type: cell-based; settings: complexes at IC50, TBHP 20 µM
Experimental: as §1

HT29 cells [3] = assay: TMRE mitochondrial membrane potential assay; type: cell-based; settings: complexes at IC50, FCCP 20 µM
Experimental: (§2) Cells were then treated with an IC50 drug concentration for each complex. At 24, 48 or 72 h, DMEM was removed, and cells were washed with PBS. Then, cells were incubated with 1 µM tetramethylrhodamine, ethyl ester (TMRE) stain for 30 min. TMRE was then removed, and cells were washed twice with PBS (0.2% BSA), after which phenol red-free media was added. […] The cells were then stained with TMRE, as described above, and the resulting solution was scanned for fluorescence. Three independent experiments in triplicates were implemented.

MDA−MB−231 cells [4] = assay: TMRE mitochondrial membrane potential assay; type: cell-based; settings: complexes at IC50, FCCP 20 µM
Experimental: as §2

HT29 cells [5] = assay: Label-free quantitative proteomics; type: cell-based, Homo Sapiens; settings: HT29, IC50, 72 h; for number of downregulated differentially expressed proteins / number of upregulated differentially expressed proteins: p < 0.05, fold change > 2
Experimental: (§3) The supernatant was then collected into 15 mL tubes, then the cells were washed with PBS and trypsinised. The detached cells were transferred to allocated tubes and centrifuged at 500× g for 5 min at 4 °C. Cell pellet was washed twice with PBS and then resuspended in 300 µL cell lysis buffer (RIPA) for 30 min on ice. Cell extracts were then centrifuged at 12,000× g for 15 min at 4 °C, and the supernatants (containing the proteins) were collected into Lo-Bind Eppendorf. The Bio-Rad protein assay (Bio-Rad, Hercules, CA, USA) was used to assess protein content. For protein extraction and delipidation 100 µL of the cell homogenate was moved to 1.7 mL Lo-Bind Eppendorf tubes and 450 µL methanol was added to the mixture and vortexed. Chloroform (150 µL) was next added and vortexed. Then, water (450 µL) was added to the mixture, vortexed and centrifuged for 5 min at 12,000× g, which formed the protein pellet at the organic/aqueous interface. The layer of chloroform was removed and then 400 µL of methanol was added. The sample was then vortexed and centrifuged at 12,000× g for 15 min. The supernatant was then aspirated and discarded. The pellet was then washed with methanol (400 µL). The supernatant was removed, and the pellets were air-dried overnight. Next, steps were performed for reduction, alkylation, and tryptic digestion of the protein. 0.1% RapiGest (Waters, Milford, MA, USA) in 50 mM aqueous ammonium bicarbonate (20 µL) was added to the air-dried pellet and vortexed for effective suspension. The pellet should completely dissolve. Then, 50 µL of 7 mM DTT in 50 mM aqueous ammonium bicarbonate was added, to give a final concentration of 5 mM DTT. Samples were then heated for 30 min at 60 °C and cooled to room temperature. Iodoacetamide (45 mM) in 50 mM aqueous ammonium bicarbonate was next added to give a concentration of 15 mM. The mixture was allowed to react in the dark for 30 min. Then, 10 ng/µL of Trypsin Gold, Mass spectrometry grade (Promega, NSW, Australia) was added for digestion to occur at room temperature overnight. And 50 µL of 4% (v/v) aqueous trifluoroacetic acid was then added to each tube. Samples were next heated for 45 min at 37 °C to effect decomposition of RapiGest. Samples were then centrifuged at 12,000× g for 10 min at 4 °C. Supernatants were then transferred to total recovery vials and run on a nanoAcquity Ultra-Performance Liquid Chromatography (UPLC) coupled with a Synapt G2-Si instrument (Waters, MA, USA) was used for label-free quantitative protein profiling. Nano-proteomics method is detailed in Method S1. Three independent experiments in triplicates were implemented, while all samples were analysed in a single run with a single injection (1 µL) for each trial. Mass spectrometry (MS) data were processed using Progenesis QI for proteomics (version 4.1, Nonlinear Dynamics, Newcastle upon Tyne, UK), and aligned using UniProt Homo Sapiens reference database IDEP9.6 utilised to cluster and retrieve the initial signature analyses. […] Enrichment studies were performed using gene lists that corresponded to the identified proteins. Overrepresentation analysis was performed based on Gene Ontology (GO) Biological Processes, GO Cellular Components, and GO Molecular Functions using iDEP. Enrichment maps and STRING apps were used to construct pathways networks and explore protein–protein interactions.

MDA−MB−231 cells [6] = assay: Label-free quantitative proteomics; type: cell-based, Homo Sapiens; settings: MDA−MB−231, IC50, 72 h; for number of downregulated differentially expressed proteins / number of upregulated differentially expressed proteins: p < 0.05, fold change > 2
Experimental: as §3

## Cc1c(C)c2cccnc2c2ncccc12.N[C@H]1CCCC[C@@H]1N.O=[N+]([O-])[O-].O=[N+]([O-])[O-].[Pt+2] [Pt^II56MESS, [Pt(5,6-dimethyl-1,10-phenanthroline)(1S,2S-diaminocyclohexane)](NO3)2]
HT29 cells [1]; HT29, 24 h
  ROS production: 321.56 RFU
HT29 cells [1]; HT29, 48 h
  ROS production: 433.67 RFU
HT29 cells [1]; HT29, 72 h
  ROS production: 453.89 RFU
MDA−MB−231 cells [2]; MDA−MB−231, 24 h
  ROS production: 338.49 RFU
MDA−MB−231 cells [2]; MDA−MB−231, 48 h
  ROS production: 418.08 RFU
MDA−MB−231 cells [2]; MDA−MB−231, 72 h
  ROS production: 446.09 RFU
HT29 cells [3]; HT29, 24 h
  MtMp (mitochondrial membrane potential): 159.93 RFU
HT29 cells [3]; HT29, 48 h
  MtMp (mitochondrial membrane potential): 151.44 RFU
HT29 cells [3]; HT29, 72 h
  MtMp (mitochondrial membrane potential): 102.76 RFU
MDA−MB−231 cells [4]; MDA−MB−231, 24 h
  MtMp (mitochondrial membrane potential): 155.45 RFU
MDA−MB−231 cells [4]; MDA−MB−231, 48 h
  MtMp (mitochondrial membrane potential): 131.53 RFU
MDA−MB−231 cells [4]; MDA−MB−231, 72 h
  MtMp (mitochondrial membrane potential): 86.51 RFU
HT29 cells [5]
  DEPs exhibited by the treatment (UpSet plot): 225
  number of downregulated differentially expressed proteins: 228
  number of upregulated differentially expressed proteins: 200
MDA−MB−231 cells [6]
  DEPs exhibited by the treatment (UpSet plot): 165
  number of downregulated differentially expressed proteins: 183
  number of upregulated differentially expressed proteins: 132

## N[C@H]1CCCC[C@@H]1N.O=[N+]([O-])[O-].O=[N+]([O-])[O-].[OH-].[OH-].[Pt+4].c1cnc2c(c1)ccc1cccnc12 [[Pt(1,10-phenanthroline)(1S,2S-diaminocyclohexane)(dihydroxy)](NO3)2]
HT29 cells [1]; HT29, 24 h
  ROS production: 182.77 RFU
HT29 cells [1]; HT29, 48 h
  ROS production: 217.33 RFU
HT29 cells [1]; HT29, 72 h
  ROS production: 242.44 RFU
MDA−MB−231 cells [2]; MDA−MB−231, 24 h
  ROS production: 196.62 RFU
MDA−MB−231 cells [2]; MDA−MB−231, 48 h
  ROS production: 256.83 RFU
MDA−MB−231 cells [2]; MDA−MB−231, 72 h
  ROS production: 275.09 RFU
HT29 cells [3]; HT29, 24 h
  MtMp (mitochondrial membrane potential): 312.19 RFU
HT29 cells [3]; HT29, 48 h
  MtMp (mitochondrial membrane potential): 261.95 RFU
HT29 cells [3]; HT29, 72 h
  MtMp (mitochondrial membrane potential): 215.58 RFU
MDA−MB−231 cells [4]; MDA−MB−231, 24 h
  MtMp (mitochondrial membrane potential): 297.56 RFU
MDA−MB−231 cells [4]; MDA−MB−231, 48 h
  MtMp (mitochondrial membrane potential): 257.95 RFU
MDA−MB−231 cells [4]; MDA−MB−231, 72 h
  MtMp (mitochondrial membrane potential): 179.38 RFU
HT29 cells [5]
  detected up and down differentially regulated proteins: no detected differentials
MDA−MB−231 cells [6]
  number of downregulated differentially expressed proteins: 5
  number of upregulated differentially expressed proteins: 9

## Cc1c(C)c2cccnc2c2ncccc12.N[C@H]1CCCC[C@@H]1N.O=[N+]([O-])[O-].O=[N+]([O-])[O-].[OH][Pt+2][OH] [Pt^IV56MESS(OH)2, [Pt(5,6-dimethyl-1,10-phenanthroline)(1S,2S-diaminocyclohexane)(dihydroxy)](NO3)2]
HT29 cells [1]; HT29, 24 h
  ROS production: 244 RFU
HT29 cells [1]; HT29, 48 h
  ROS production: 318.56 RFU
HT29 cells [1]; HT29, 72 h
  ROS production: 368.11 RFU
MDA−MB−231 cells [2]; MDA−MB−231, 24 h
  ROS production: 292.21 RFU
MDA−MB−231 cells [2]; MDA−MB−231, 48 h
  ROS production: 360.12 RFU
MDA−MB−231 cells [2]; MDA−MB−231, 72 h
  ROS production: 386.28 RFU
HT29 cells [3]; HT29, 24 h
  MtMp (mitochondrial membrane potential): 258.69 RFU
HT29 cells [3]; HT29, 48 h
  MtMp (mitochondrial membrane potential): 172.39 RFU
HT29 cells [3]; HT29, 72 h
  MtMp (mitochondrial membrane potential): 124.84 RFU
MDA−MB−231 cells [4]; MDA−MB−231, 24 h
  MtMp (mitochondrial membrane potential): 190.39 RFU
MDA−MB−231 cells [4]; MDA−MB−231, 48 h
  MtMp (mitochondrial membrane potential): 156.37 RFU
MDA−MB−231 cells [4]; MDA−MB−231, 72 h
  MtMp (mitochondrial membrane potential): 92.94 RFU
HT29 cells [5]
  detected up and down differentially regulated proteins: 3
MDA−MB−231 cells [6]
  number of downregulated differentially expressed proteins: 3
  number of upregulated differentially expressed proteins: 8

## Cc1cc2cccnc2c2ncccc12.N[C@H]1CCCC[C@@H]1N.O=[N+]([O-])[O-].O=[N+]([O-])[O-].[Pt+2] [Pt^II5MESS, [Pt(5-methyl-1,10-phenanthroline)(1S,2S-diaminocyclohexane)](NO3)2]
HT29 cells [1]; HT29, 24 h
  ROS production: 278.00 RFU
HT29 cells [1]; HT29, 48 h
  ROS production: 362.89 RFU
HT29 cells [1]; HT29, 72 h
  ROS production: 404.44 RFU
MDA−MB−231 cells [2]; MDA−MB−231, 24 h
  ROS production: 316.23 RFU
MDA−MB−231 cells [2]; MDA−MB−231, 48 h
  ROS production: 372.49 RFU
MDA−MB−231 cells [2]; MDA−MB−231, 72 h
  ROS production: 399.97 RFU
HT29 cells [3]; HT29, 24 h
  MtMp (mitochondrial membrane potential): 253.81 RFU
HT29 cells [3]; HT29, 48 h
  MtMp (mitochondrial membrane potential): 211.88 RFU
HT29 cells [3]; HT29, 72 h
  MtMp (mitochondrial membrane potential): 143.93 RFU
MDA−MB−231 cells [4]; MDA−MB−231, 24 h
  MtMp (mitochondrial membrane potential): 230.62 RFU
MDA−MB−231 cells [4]; MDA−MB−231, 48 h
  MtMp (mitochondrial membrane potential): 189.85 RFU
MDA−MB−231 cells [4]; MDA−MB−231, 72 h
  MtMp (mitochondrial membrane potential): 150.71 RFU
HT29 cells [5]
  DEPs exhibited by the treatment (UpSet plot): 34
  number of downregulated differentially expressed proteins: 118
  number of upregulated differentially expressed proteins: 110
MDA−MB−231 cells [6]
  DEPs exhibited by the treatment (UpSet plot): 22
  number of downregulated differentially expressed proteins: 75
  number of upregulated differentially expressed proteins: 91

## N.N.[Cl][Pt][Cl] [Cisplatin, cisplatin]
HT29 cells [1]; HT29, 24 h
  ROS production: 205.39 RFU
HT29 cells [1]; HT29, 48 h
  ROS production: 285.11 RFU
HT29 cells [1]; HT29, 72 h
  ROS production: 316.55 RFU
MDA−MB−231 cells [2]; MDA−MB−231, 24 h
  ROS production: 279.82 RFU
MDA−MB−231 cells [2]; MDA−MB−231, 48 h
  ROS production: 325.96 RFU
MDA−MB−231 cells [2]; MDA−MB−231, 72 h
  ROS production: 369.97 RFU
HT29 cells [3]; HT29, 24 h
  MtMp (mitochondrial membrane potential): 270.02 RFU
HT29 cells [3]; HT29, 48 h
  MtMp (mitochondrial membrane potential): 237.68 RFU
HT29 cells [3]; HT29, 72 h
  MtMp (mitochondrial membrane potential): 188.59 RFU
MDA−MB−231 cells [4]; MDA−MB−231, 24 h
  MtMp (mitochondrial membrane potential): 208.24 RFU
MDA−MB−231 cells [4]; MDA−MB−231, 48 h
  MtMp (mitochondrial membrane potential): 177.91 RFU
MDA−MB−231 cells [4]; MDA−MB−231, 72 h
  MtMp (mitochondrial membrane potential): 154.83 RFU
